Reference: US20200078468A1, “NEUROTENSIN RECEPTOR BINDING CONJUGATES AND FORMULATIONS THEREOF” (priority 2016, published 2020)
Numbered stars: 1 amine (or outer) side, 2 acyl side, 3 side chain; on linkers, the order of the positions; unused ones are H or OH. Bridge positions count the residues as written; N and C are the ends. Square brackets hold non-standard residues; d marks the D form. Peptide text beside a SMILES is read from it. I, II: the chains in the order shown. * marks the point of attachment. Hexanoyl(6-succinimido-3yl) = O=C1CC([*:1])C(=O)N1CCCCCC(=O)[*:2]; Dolaproine = CO[C@@H]([C@@H]1CCCN1)[C@@H](C)C(=O)O; Dil = CC[C@H](C)[C@H](NC)[C@@H](CC(=O)O)OC; PABC = O=C(OCc1ccc(N[*:1])cc1)[*:2]; X1 = C[C@@H](N*)[C@@H](O)c1ccccc1; Cit = NC(=O)NCCC[C@H](N)C(=O)O; Pen = CC(C)(S)[C@H](N)C(=O)O; Tle = CC(C)(C)[C@H](N)C(=O)O; NMeV = CN[C@H](C(=O)O)C(C)C

What was measured:
human NTSR1 = target: T1, human NTSR1 (Homo sapiens, UniProt P30989); assay: radioligand-receptor binding assay, [125I] labeled neurotensin (Eurofins Panlabs); details: [125I] neurotensin 0.02 nM, membranes from NTSR1 expressing HEK-293 cells, 45 minute incubation, Cheng and Prusoff; read-out: NTSR1 binding Ki
T1 construct: host or cells: HEK-293 cells (membrane preparations)
Protocol: Conjugates were assessed in an in vitro assay evaluating binding to NTSR1. A radioligand-receptor binding assay was conducted at Eurofins Panlabs (Taiwan) to determine the affinity of conjugates described herein to NTSR1. The assay measures binding of radiolabeled ligand, [^125I] labeled neurotensin, to human NTSR1 using membrane preparations from NTSR1 expressing HEK-293 cells (Human embryonic kidney cells 293). Membranes were incubated with radiolabeled neurotensin (0.02 nM) in the presence of conjugate/compound starting at a dose of either 100 nM, or 10 nM, using 3× serial dilutions to obtain a 6-pt curve. After a 45 minute incubation, membranes were filtered and washed 3× and counted to determine the remaining [^125I] neurotensin bound to the receptor. IC50 values were determined by a non-linear, least squares regression analysis using MathIQ™ (ID Business Solutions Ltd., UK). The Ki values were calculated using the equation of Cheng and Prusoff (Cheng and Prusoff, Biochem. Pharmacol. 22:3099-3108, 1973) using the observed IC50 of the tested conjugate/compound, the concentration of radioligand employed in the assay, and the historical values for the Kd of the ligand obtained at Eurofins.

[1] = system: SW48 (human colon cancer cells); assay: inhibition of SW48 cell proliferation (CellTiter Glo); format: cell-based; details: NTSR1 targeted compound; 72 hrs; read-out: SW-48 proliferation IC50
In short: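 Cells plated at 5,000/well and grown 24 hrs were exposed to conjugates for 72 hrs at 37° C, 5% CO2, in a ten-point three-fold series starting at 10 μM; vehicle was 0.01% DMSO. Proliferation was read by CellTiter Glo. % inhibition was taken relative to vehicle, with IC50 from four-parameter nonlinear regression.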

T1 sequence (P30989 whole entry): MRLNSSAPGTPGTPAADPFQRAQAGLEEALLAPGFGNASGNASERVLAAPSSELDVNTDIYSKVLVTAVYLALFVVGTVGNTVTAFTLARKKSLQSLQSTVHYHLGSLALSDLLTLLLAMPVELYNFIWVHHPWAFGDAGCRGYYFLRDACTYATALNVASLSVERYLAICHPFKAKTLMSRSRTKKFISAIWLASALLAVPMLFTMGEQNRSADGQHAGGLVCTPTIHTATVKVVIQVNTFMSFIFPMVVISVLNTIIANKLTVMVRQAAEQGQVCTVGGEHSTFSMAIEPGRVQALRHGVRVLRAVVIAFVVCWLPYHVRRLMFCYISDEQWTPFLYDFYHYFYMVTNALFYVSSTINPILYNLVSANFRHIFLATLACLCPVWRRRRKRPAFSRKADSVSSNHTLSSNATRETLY

| Compound | Ki (human NTSR1) [nM] | IC50 [1] [nM] |
| --- | --- | --- |
| COc1cc2cc(c1Cl)N(C)C(=O)C[C@H](OC(=O)[C@H](C)N(C)C(=O)CCSC1CC(=O)N(CCCNC(=O)CNC(=O)[C@H](CC(C)C)NC(=O)[C@H](Cc3ccccc3)NC(=O)CNC(=O)CCCCCN3C(=O)CC(SCCC(=O)NCCCC[C@H](NC(C)=O)C(=O)N4CCC[C@H]4C(=O)N[C@H](CCCNC(=N)N)C(=O)N[C@@H](CCCNC(=N)N)C(=O)N4CCC[C@H]4C(=O)N[C@@H](Cc4ccc(O)cc4)C(=O)N[C@H](C(=O)N[C@@H](CC(C)C)C(=O)O)C(C)(C)C)C3=O)C1=O)[C@]1(C)O[C@H]1[C@H](C)[C@@H]1C[C@@](O)(NC(=O)O1)[C@H](OC)/C=C/C=C(\C)C2 (some centres unmarked) [Compound 29] | 1.77 | 22 |
| COc1cc2cc(c1Cl)N(C)C(=O)C[C@H](OC(=O)[C@H](C)N(C)C(=O)CCSC1CC(=O)N(CCCNC(=O)CNC(=O)[C@H](CC(C)C)NC(=O)[C@H](Cc3ccccc3)NC(=O)CNC(=O)CCCCCN3C(=O)CC(SC(C)(C)[C@H](NC(C)=O)C(=O)N4CCC[C@H]4C(=O)N[C@@H](CCCNC(=N)N)C(=O)N(C)[C@@H](CCCNC(=N)N)C(=O)N4CCC[C@H]4C(=O)N[C@H](Cc4ccc(O)cc4)C(=O)N[C@H](C(=O)N[C@@H](CC(C)C)C(=O)O)C(C)(C)C)C3=O)C1=O)[C@]1(C)O[C@H]1[C@H](C)[C@@H]1C[C@@](O)(NC(=O)O1)[C@H](OC)/C=C/C=C(\C)C2 (some centres unmarked) [Compound 18] | > 100 | 36 |
| COc1cc2cc(c1Cl)N(C)C(=O)C[C@H](OC(=O)[C@H](C)N(C)C(=O)CCSC1CC(=O)N(CCCNC(=O)CNC(=O)[C@H](CC(C)C)NC(=O)[C@H](Cc3ccccc3)NC(=O)CNC(=O)CCCCCN3C(=O)CC(SC(C)(C)[C@H](NC(C)=O)C(=O)N4CCC[C@H]4C(=O)N[C@@H](CCCCN)C(=O)N[C@@H](CCCNC(=N)N)C(=O)N4CCC[C@H]4C(=O)N[C@@H](Cc4ccc(O)cc4)C(=O)N[C@H](C(=O)N[C@@H](CC(C)C)C(=O)O)C(C)(C)C)C3=O)C1=O)[C@]1(C)O[C@H]1[C@H](C)[C@@H]1C[C@@](O)(NC(=O)O1)[C@H](OC)/C=C/C=C(\C)C2 (some centres unmarked) [Compound 21] | 4.65 | 0.49 |
| CC[C@H](C)[C@@H]([C@@H](CC(=O)N1CCC[C@H]1[C@H](OC)[C@@H](C)C(=O)N[C@H](C)[C@@H](O)c1ccccc1)OC)N(C)C(=O)[C@@H](NC(=O)[C@H](C(C)C)N(C)C(=O)OCc1ccc(NC(=O)[C@H](CCCNC(N)=O)NC(=O)[C@@H](NC(=O)CCCCCN2C(=O)CC(SC(C)(C)[C@H](NC(C)=O)C(=O)N3CCC[C@H]3C(=O)N[C@@H](CCCCN)C(=O)N[C@@H](CCCNC(=N)N)C(=O)N3CCC[C@H]3C(=O)N[C@@H](Cc3ccc(O)cc3)C(=O)N[C@H](C(=O)N[C@@H](CC(C)C)C(=O)O)C(C)(C)C)C2=O)C(C)C)cc1)C(C)C (stereo partly drawn) [Compound 59] (I: Ac-[Pen]PKRPY[Tle]L-OH / II: V[Cit][PABC][NMeV]V[Dil][Dolaproine]-X1; linker I:1-II:N via Hexanoyl(6-succinimido-3yl)) | 6.98 | 65 |
| CO[C@H]1C(=O)[C@]2(C)[C@@H](OC)C[C@H]3OC[C@@]3(OC(C)=O)[C@H]2[C@H](OC(=O)c2ccccc2)[C@]2(O)C[C@H](OC(=O)[C@H](OC(=O)CNC(=O)[C@H](CC(C)C)NC(=O)[C@H](Cc3ccccc3)NC(=O)CNC(=O)CCCCCN3C(=O)CC(SC(C)(C)[C@H](NC(C)=O)C(=O)N4CCC[C@H]4C(=O)N[C@@H](CCCNC(=N)N)C(=O)N[C@@H](CCCNC(=N)N)C(=O)N4CCC[C@H]4C(=O)N[C@@H](Cc4ccc(O)cc4)C(=O)N[C@H](C(=O)N[C@@H](CC(C)C)C(=O)O)C(C)(C)C)C3=O)[C@@H](NC(=O)OC(C)(C)C)c3ccccc3)C(C)=C1C2(C)C (some centres unmarked) [Compound 3] | 1.64 |  |
| CC[C@H](C)[C@H](NC(=O)[C@H](Cc1ccc(O)c(O)c1)NC(=O)[C@@H]1CCCN1C(=O)[C@H](CCCNC(=N)N)NC(=O)[C@@H](CCCNC(=N)N)NC(=O)[C@@H]1CCCN1C(=O)[C@H](CCCCNC(=O)CCSC1CC(=O)N(CCCCCC(=O)NCC(=O)N[C@@H](Cc2ccccc2)C(=O)N[C@@H](CC(C)C)C(=O)NCC(=O)NCCCN2C(=O)CC(SCCC(=O)N(C)[C@@H](C)C(=O)O[C@H]3CC(=O)N(C)c4cc(cc(OC)c4Cl)C/C(C)=C/C=C/[C@@H](OC)[C@@]4(O)C[C@H](OC(=O)N4)[C@@H](C)[C@@H]4O[C@@]34C)C2=O)C1=O)NC(C)=O)C(=O)N[C@@H](C[Si](C)(C)C)C(=O)O (some centres unmarked) [Compound 44] | 0.23 |  |
| CC[C@H](C)[C@H](NC(=O)[C@H](Cc1ccc(O)cc1)NC(=O)[C@@H]1CCCN1C(=O)[C@H](CCCNC(=N)N)NC(=O)[C@@H](CCCNC(=N)N)NC(=O)[C@@H]1CCCN1C(=O)[C@H](CCCCNC(=O)CCSC1CC(=O)N(CCCCCC(=O)NCC(=O)N[C@@H](Cc2ccccc2)C(=O)N[C@@H](CC(C)C)C(=O)NCC(=O)NCCCN2C(=O)CC(SCCC(=O)N(C)[C@@H](C)C(=O)O[C@H]3CC(=O)N(C)c4cc(cc(OC)c4Cl)C/C(C)=C/C=C/[C@@H](OC)[C@@]4(O)C[C@H](OC(=O)N4)[C@@H](C)[C@@H]4O[C@@]34C)C2=O)C1=O)NC(C)=O)C(=O)N[C@@H](C[Si](C)(C)C)C(=O)O (some centres unmarked) [Compound 38] | 0.087 |  |
| CC[C@H](C)[C@H](NC(=O)[C@H](Cc1c[nH]c2ccccc12)NC(=O)[C@@H]1CCCN1C(=O)[C@H](CCCNC(=N)N)NC(=O)[C@@H](CCCNC(=N)N)NC(=O)[C@@H]1CCCN1C(=O)[C@H](CCCCNC(=O)CCSC1CC(=O)N(CCCCCC(=O)NCC(=O)N[C@@H](Cc2ccccc2)C(=O)N[C@@H](CC(C)C)C(=O)NCC(=O)NCCCN2C(=O)CC(SCCC(=O)N(C)[C@@H](C)C(=O)O[C@H]3CC(=O)N(C)c4cc(cc(OC)c4Cl)C/C(C)=C/C=C/[C@@H](OC)[C@@]4(O)C[C@H](OC(=O)N4)[C@@H](C)[C@@H]4O[C@@]34C)C2=O)C1=O)NC(C)=O)C(=O)N[C@@H](C[Si](C)(C)C)C(=O)O (some centres unmarked) [Compound 43] | 1.31 |  |
| CC[C@H](C)[C@H](NC(=O)[C@@H](Cc1ccc(O)cc1)NC(=O)[C@@H]1CCCN1C(=O)[C@H](CCCNC(=N)N)NC(=O)[C@@H](CCCNC(=N)N)NC(=O)[C@@H]1CCCN1C(=O)[C@H](CCCCNC(=O)CCSC1CC(=O)N(CCCCCC(=O)NCC(=O)N[C@@H](Cc2ccccc2)C(=O)N[C@@H](CC(C)C)C(=O)NCC(=O)NCCCN2C(=O)CC(SCCC(=O)N(C)[C@@H](C)C(=O)O[C@H]3CC(=O)N(C)c4cc(cc(OC)c4Cl)C/C(C)=C/C=C/[C@@H](OC)[C@@]4(O)C[C@H](OC(=O)N4)[C@@H](C)[C@@H]4O[C@@]34C)C2=O)C1=O)NC(C)=O)C(=O)N[C@@H](C[Si](C)(C)C)C(=O)O (some centres unmarked) [Compound 45] | > 10 |  |
| COc1cc2cc(c1Cl)N(C)C(=O)C[C@H](OC(=O)[C@H](C)N(C)C(=O)CCSC1CC(=O)N(CCCNC(=O)CNC(=O)[C@H](CC(C)C)NC(=O)[C@H](Cc3ccccc3)NC(=O)CNC(=O)CCCCCN3C(=O)CC(SCCC(=O)NCCCC[C@H](NC(C)=O)C(=O)N4CCC[C@H]4C(=O)N[C@H](CCCNC(=N)N)C(=O)N[C@@H](CCCNC(=N)N)C(=O)N4CCC[C@H]4C(=O)N[C@@H](Cc4ccc(O)cc4)C(=O)N[C@H](C(=O)N[C@@H](C[Si](C)(C)C)C(=O)O)[C@@H](C)OC)C3=O)C1=O)[C@]1(C)O[C@H]1[C@H](C)[C@@H]1C[C@@](O)(NC(=O)O1)[C@H](OC)/C=C/C=C(\C)C2 (some centres unmarked) [Compound 39] | 0.8 |  |
| COc1cc2cc(c1Cl)N(C)C(=O)C[C@H](OC(=O)[C@H](C)N(C)C(=O)CCSC1CC(=O)N(CCCNC(=O)CNC(=O)[C@H](CC(C)C)NC(=O)[C@H](Cc3ccccc3)NC(=O)CNC(=O)CCCCCN3C(=O)CC(SCCC(=O)NCCCC[C@H](NC(C)=O)C(=O)N4CCC[C@H]4C(=O)N[C@H](CCCNC(=N)N)C(=O)N[C@@H](CCCNC(=N)N)C(=O)N4CCC[C@H]4C(=O)N[C@@H](Cc4ccc(O)cc4)C(=O)N[C@H](C(=O)N[C@@H](C[Si](C)(C)C)C(=O)O)C(C)(C)C)C3=O)C1=O)[C@]1(C)O[C@H]1[C@H](C)[C@@H]1C[C@@](O)(NC(=O)O1)[C@H](OC)/C=C/C=C(\C)C2 (some centres unmarked) [Compound 40] | 0.36 |  |
| CC[C@H](C)[C@H](NC(=O)[C@H](Cc1ccc(OC)c(OC)c1)NC(=O)[C@@H]1CCCN1C(=O)[C@H](CCCNC(=N)N)NC(=O)[C@@H](CCCNC(=N)N)NC(=O)[C@@H]1CCCN1C(=O)[C@H](CCCCNC(=O)CCSC1CC(=O)N(CCCCCC(=O)NCC(=O)N[C@@H](Cc2ccccc2)C(=O)N[C@@H](CC(C)C)C(=O)NCC(=O)NCCCN2C(=O)CC(SCCC(=O)N(C)[C@@H](C)C(=O)O[C@H]3CC(=O)N(C)c4cc(cc(OC)c4Cl)C/C(C)=C/C=C/[C@@H](OC)[C@@]4(O)C[C@H](OC(=O)N4)[C@@H](C)[C@@H]4O[C@@]34C)C2=O)C1=O)NC(C)=O)C(=O)N[C@@H](C[Si](C)(C)C)C(=O)O (some centres unmarked) [Compound 46] | > 10 |  |
| COc1cc2cc(c1Cl)N(C)C(=O)C[C@H](OC(=O)[C@H](C)N(C)C(=O)CCSC1CC(=O)N(CCCNC(=O)CNC(=O)[C@H](CC(C)C)NC(=O)[C@H](Cc3ccccc3)NC(=O)CNC(=O)CCCCCN3C(=O)CC(SCCC(=O)NCCCC[C@H](NC(=O)c4ccc(N=[N+]=[N-])cc4)C(=O)N4CCC[C@H]4C(=O)N(C)[C@@H](CCCNC(=N)N)C(=O)N[C@@H](CCCNC(=N)N)C(=O)N4CCC[C@H]4C(=O)N[C@@H](Cc4ccc(O)cc4)C(=O)N[C@H](C(=O)N[C@@H](CC(C)C)C(=O)O)C(C)(C)C)C3=O)C1=O)[C@]1(C)O[C@H]1[C@H](C)[C@@H]1C[C@@](O)(NC(=O)O1)[C@H](OC)/C=C/C=C(\C)C2 (some centres unmarked) [Compound 49] | 0.18 |  |
